“Also recorded” adds a separate entry of the source.
Experiments:
[1] = test system: Malondialdehyde (MDA) produced by platelet; test: Inhibition of malondialdehyde (MDA) generation by thrombin-stimulated platelets (TBA method); type: cell-based, rats (Male Sprague-Dawley); conditions: rat platelet
Protocol: A platelet is agglutinated by the stimulus on thrombin. TXA2 is released by this stimulation, and it accelerated the agglutination of the platelet. And the malondialdehyde(MDA) is released with TXA2 . It is conducted whether the extract of the Ilex pubescens inhibits the production of MDA (Determination of Melondialdehyde) or not by the colorimetry method. As the extraction solvent, methanol, butanol and water are used. […] Their structures are as follows:
Male Sprague-Dawley rats, weightin 180-200 g, were used in experiment. Blood was collected by the same method with (test 1-2). 100 sample was let stand for 20 minutes, in polypropylene tube. It was centrifuged (1400 r.p.m. for 20 minutes) at 10° C. to obtain platelet rich plasma (PRP). PRP was recentrifuged (2800 r.m.p., for 20 minutes) at 10° C. to obtain precipitated platelet pellet. Platelet was suspended in 0.01 M of pH 7.4 phosphate buffer (1×10^9 cell/ml). To the platelet suspension, 100 µl of methanol extracts of Ilex pubescens was added and the reaction mixture was preincubated in thermostat of 37° C. for 20 minutes. 50 µl of thrombin (10 U) was then added to agglutinate the platelet, and thiobarbituric acid (TBA) was added as the couple. This reaction mixture was extracted by 2 ml of n-butanol and the n-butanol phase was separated by centrifugation (1200 r.p.m. for 10 minutes) at 30° C. The absorbance of n-butanol phase was observed by UV-spectrophotometer at 534 nm.
1 kg of root of Ilex pubescens was powdered and the powder of Ilex pubescens was extracted 4 times with each 500 ml of 70% methanol by heating in water bath. […] 12 g of methanol extract was suspended in the small amount of water and extracted with butanol several times. […] 12 g of methanol extract of Ilex pubescens, 4.1 g of butanol fraction and 6 g of water fraction were dissolved to 20 ml of methanol solutions, respectively. 1m1 of each solution was taken in test tube and methanol was removed under nitrogen atmosphere. Residue was suspended in 1m1 of 0.01 M phosphate buffer. 0.1 ml of suspension was used as sample.
*1 ml of washed platelet (1 × 10^9 cells/ml) of rats was
preincubated (37° C. for 30 minutes) with 0.1 ml of sample in 0.01
M phosphate buffer (pH 7.4, in normal saline). Then, to the agglutinated
platelet, 50 μl of bovine thrombin (10 U) was added.
**MDA was determined by the method of TBA. Each value is the mean of 2
Therefore, 4.1 g of butanol fraction was dissolved in 10 ml of methanol and chromatographed on Sephadex LH-20 column (Sigma Co., 3.8×66 cm) with methanol as eluant. After the first eluate (260 ml) corresponding to the void volume of the column was eluted, the eluate was collected in test tubes at the volume of 21ml. 12 fractions were obtained.
Each fraction was dissolved in 10 ml of methanol and 0.5 ml of methanol solution was taken. The solvent was evaporated under nitrogen atmosphere. The residue was suspended in 1m1 of 0.01 M phosphate buffer and 0.1m1 was used as sample. Inhibition of MDA generation was measured by the same method with Test 2-1).
*4.1 g of butanol extract was chromatographed on Sephadex LH20 column (3,
× 66 cm) with methanol as eluant.
**Each fraction was dissolved in 10 ml of methanol and 0.5 ml of solution

[2] = test system: thromboxane synthase; conditions: known property; cited from earlier work

Row | Compound | inhibition of MDA generation, result in words [1] | other results
1 | C[C@H]1CC[C@]2(C(=O)O)CC[C@]3(C)C(=CC[C@@H]4[C@@]5(C)CC[C@H](O[C@@H]6OC[C@@H](O)[C@H](O)[C@H]6O[C@@H]6O[C@H](CO)[C@@H](O)[C@H](O)[C@H]6O)C(C)(C)[C@@H]5CC[C@]43C)[C@@H]2[C@]1(C)O [Ilexoside D] | exhibited the greatest antithrombic activity | inhibition of MDA generation, result in words ([1]; listed as ilexoside D): effective; also recorded: inhibits MDA production
2 | C[C@H]1CC[C@]2(C(=O)O[C@@H]3O[C@H](CO)[C@@H](O)[C@H](O)[C@H]3O)CC[C@]3(C)C(=CC[C@@H]4[C@@]5(C)CC[C@H](O[C@@H]6OC[C@@H](O)[C@H](O)[C@H]6O[C@@H]6O[C@H](CO)[C@@H](O)[C@H](O)[C@H]6O)C(C)(C)[C@@H]5CC[C@]43C)[C@@H]2[C@]1(C)O [Ilexoside K] | had no effect; also recorded: ineffective | 
3 | C[C@@H]1O[C@@H](O[C@H]2[C@H](O[C@H]3[C@H](O[C@H]4CC[C@]5(C)[C@H]6CC=C7[C@H]8[C@](C(=O)O[C@@H]9O[C@H](CO)[C@@H](O)[C@H](O)[C@H]9O)(CC[C@H](C)[C@@]8(C)O)CC[C@@]7(C)[C@]6(C)CC[C@H]5C4(C)C)OC[C@@H](O)[C@@H]3O)O[C@H](CO)[C@@H](O)[C@@H]2O)[C@H](O)[C@H](O)[C@H]1O [Ilexoside O] | exhibited no effect | inhibition of MDA generation, result in words ([1]; listed as ilexoside O): ineffective
4 | c1c[nH]cn1 [Imidazole] |  | inhibition of thromboxane synthase, in words [2]: known as the inhibitor of thromboxane synthase
5 | CC1CCC2(C(=O)O)CCC3(C)C(=CCC4C5(C)CCC(O)C(C)(C(=O)O)C5CCC43C)C2C1(C)O (stereo not drawn) [Pubescenic acid] | inhibits MDA production | IC50 (concentration inhibiting 50% of MDA generation) ([1]; isolated components, imidazole as control): 0.41 mg
6 | Prosapogenin A | did not inhibit MDA generation | 

— US4987125A, “Antithrombotic activity of the triterpenoids of ilex pubescens and the conversion method of the triterpenoids of ilex pubescens having no antithrombotic activity into the triterpenoids having antithrombotic activity” (Cheil Sugar & Co., Ltd., priority 1988, dated 1991)
